In patent US20150374646A1, “TREATMENT OF CANCER AND OTHER CONDITIONS USING A TRANSCRIPTION FACTOR MODULATOR” (C & C BIOPHARMA, LLC, priority 2013, published 2015):

Key:
Assay in all cases: Cancer cell line growth inhibition, CellTiter-Glo (Example 3)
Type in all cases: cell-based
OVCAR-3 = details: Homo sapiens, Ovarian, 72 hours, read-out: growth inhibition of various human cancer cell lines
Experimental: (§1) YT30 was tested for growth inhibition against 67 human cancer cell lines derived from diverse tissues including the National Cancer Institute human cancer cell lines (NCI-60). […] Cells in different wells were treated with various concentrations of YT30, YT86, YT88, or YT128. […] Cell viabilities were determined by the CellTiter-Glo Luminescence Cell Viability assay kit (Promega Corporation, Madison, Wis.) according to manufacturer's protocol.

HeLa = details: Homo sapiens, Cervical, 72 hours, read-out: growth inhibition of various human cancer cell lines
Experimental: as §1

U251 = details: Homo sapiens, U-251, CNS, 72 hours, read-out: growth inhibition of various human cancer cell lines
Experimental: as §1

A498 = details: Homo sapiens, Renal, 72 hours, read-out: growth inhibition of various human cancer cell lines
Experimental: as §1

HL60 = details: Homo sapiens, HL-60, Leukemia, 72 hours, read-out: growth inhibition of various human cancer cell lines
Experimental: as §1

MDA-MB-435 = details: Homo sapiens, Breast, 72 hours, read-out: growth inhibition of various human cancer cell lines
Experimental: as §1

T-47D = details: Homo sapiens, T47D, Breast, 72 hours, read-out: growth inhibition of various human cancer cell lines
Experimental: as §1

TK-10 = details: Homo sapiens, Renal, 72 hours, read-out: growth inhibition of various human cancer cell lines
Experimental: as §1

SF-539 = details: Homo sapiens, CNS, 72 hours, read-out: growth inhibition of various human cancer cell lines
Experimental: as §1

SNB-19 = details: Homo sapiens, CNS, 72 hours, read-out: growth inhibition of various human cancer cell lines
Experimental: as §1

MDA-MB-468 = details: Homo sapiens, Breast, 72 hours, read-out: growth inhibition of various human cancer cell lines
Experimental: as §1

MDA-MB231 = details: Homo sapiens; Breast, MDA-MB-231; 72 hours; read-out: growth inhibition of various human cancer cell lines
Experimental: as §1

BT-549 = details: Homo sapiens, Breast, 72 hours, read-out: growth inhibition of various human cancer cell lines
Experimental: as §1

OVCAR-4 = details: Homo sapiens, Ovarian, 72 hours, read-out: growth inhibition of various human cancer cell lines
Experimental: as §1

SR = details: Homo sapiens, Leukemia, 72 hours, read-out: growth inhibition of various human cancer cell lines
Experimental: as §1

MCF7 = details: Homo sapiens, Breast, MCF-7, 72 hours, read-out: growth inhibition of various human cancer cell lines
Experimental: as §1

siHa = details: Homo sapiens, Cervical, 72 hours, read-out: growth inhibition of various human cancer cell lines
Experimental: as §1

SN12C = details: Homo sapiens, Renal, 72 hours, read-out: growth inhibition of various human cancer cell lines
Experimental: as §1

UO-31 = details: Homo sapiens, Renal, 72 hours, read-out: growth inhibition of various human cancer cell lines
Experimental: as §1

SF-295 = details: Homo sapiens, CNS, 72 hours, read-out: growth inhibition of various human cancer cell lines
Experimental: as §1

MOLT-4 = details: Homo sapiens, Leukemia, 72 hours, read-out: growth inhibition of various human cancer cell lines
Experimental: as §1

K562 = details: Homo sapiens, Leukemia, 72 hours, read-out: growth inhibition of various human cancer cell lines
Experimental: as §1

A549 = details: Homo sapiens, Lung, 72 hours, read-out: growth inhibition of various human cancer cell lines
Experimental: as §1

OVCAR-5 = details: Homo sapiens, Ovarian, 72 hours, read-out: growth inhibition of various human cancer cell lines
Experimental: as §1

HS 578T = details: Homo sapiens, Breast, 72 hours, read-out: growth inhibition of various human cancer cell lines
Experimental: as §1

Caski = details: Homo sapiens, Ca-Ski, Cervical, 72 hours, read-out: growth inhibition of various human cancer cell lines
Experimental: as §1

CCRF-CEM = details: Homo sapiens, Leukemia, 72 hours, read-out: growth inhibition of various human cancer cell lines
Experimental: as §1

SF-268 = details: Homo sapiens, CNS, 72 hours, read-out: growth inhibition of various human cancer cell lines
Experimental: as §1

NCI/ADR-RES = details: Homo sapiens, Breast, 72 hours, read-out: growth inhibition of various human cancer cell lines
Experimental: as §1

786-0 = details: Homo sapiens, Renal, 72 hours, read-out: growth inhibition of various human cancer cell lines
Experimental: as §1

DU-145 = details: Homo sapiens, Prostate, 72 hours, read-out: growth inhibition of various human cancer cell lines
Experimental: as §1

SNB-75 = details: Homo sapiens, CNS, 72 hours, read-out: growth inhibition of various human cancer cell lines
Experimental: as §1

| Structure (SMILES) | IC50 (OVCAR-3) | IC50 (HeLa) | IC50 (U251) | IC50 (A498) | IC50 (HL60) | IC50 (MDA-MB-435) | IC50 (T-47D) | IC50 (TK-10) | IC50 (SF-539) | IC50 (SNB-19) | IC50 (MDA-MB-468) | IC50 (MDA-MB231) | IC50 (BT-549) | IC50 (OVCAR-4) | IC50 (SR) | IC50 (MCF7) | IC50 (siHa) | IC50 (SN12C) | IC50 (UO-31) | IC50 (SF-295) | other results |
| --- | --- | --- | --- | --- | --- | --- | --- | --- | --- | --- | --- | --- | --- | --- | --- | --- | --- | --- | --- | --- | --- |
| Nc1ccccc1NC(=O)CCCCCNC(=O)c1cc2ccccc2[nH]1 [YT86] | 7.2 µM | 6.74 µM | 4.47 µM | 9.55 µM | 4.81 µM | 8.31 µM | 12.5 µM | 17.2 µM | 7.76 µM | 14.2 µM | 7.04 µM | 5.81 µM | 13.5 µM | 14.3 µM | 6.4 µM | 5.86 µM | 8.78 µM | 8 µM | 7.51 µM | 7.41 µM | IC50 (MOLT-4): 3.09 µM; IC50 (K562): 5.64 µM; IC50 (A549): 10.9 µM; IC50 (OVCAR-5): 5.99 µM; IC50 (HS 578T): 8.85 µM; IC50 (Caski): 11.3 µM; IC50 (CCRF-CEM): 3.17 µM; IC50 (SF-268): 14.9 µM |
| Nc1ccccc1NC(=O)CCCCCNC(=O)c1ccc(-c2ccccc2)o1 [YT88] | 6.57 µM | 6.02 µM | 4.38 µM | 9.54 µM | 6.97 µM | 7.59 µM | 15 µM | 13.4 µM | 6.91 µM | 9.61 µM | 7.42 µM | 4.28 µM | 10.6 µM | 11.9 µM | 5.89 µM | 3.8 µM | 9.07 µM | 7.25 µM | 9.53 µM | 6.83 µM | IC50 (NCI/ADR-RES): 14.2 µM; IC50 (786-0): 13.8 µM; IC50 (DU-145): 16.2 µM; IC50 (MOLT-4): 3 µM; IC50 (K562): 5.74 µM; IC50 (OVCAR-5): 5.66 µM; IC50 (HS 578T): 5.67 µM; IC50 (Caski): 14.2 µM; IC50 (CCRF-CEM): 2.65 µM; IC50 (SNB-75): 11.2 µM; IC50 (SF-268): 14.4 µM |
| Nc1ccccc1NC(=O)CCCCCCNC(=O)c1cc2ccccc2[nH]1 [YT128] | 6.91 µM | 6.58 µM | 5 µM | 7.46 µM | 5.86 µM | 9.74 µM | 12.6 µM | 12.1 µM | 7.61 µM | 13.8 µM | 11.2 µM | 6.75 µM | 9.14 µM | 13.6 µM | 5.96 µM | 8.52 µM | 9.7 µM | 7.11 µM | 6.58 µM | 8.61 µM | IC50 (NCI/ADR-RES): 14.6 µM; IC50 (786-0): 9.47 µM; IC50 (MOLT-4): 5.08 µM; IC50 (K562): 5.03 µM; IC50 (A549): 12.8 µM; IC50 (OVCAR-5): 6.87 µM; IC50 (HS 578T): 8.39 µM; IC50 (Caski): 10.9 µM; IC50 (CCRF-CEM): 4.24 µM; IC50 (SF-268): 13.4 µM |
